Data as given in patent publication US7273863B1, “Benzophenones as inhibitors of reverse transcriptase” (SmithKline Beecham Corporation, priority 1999, dated 2007).
Read-outs that look alike come from different tables or passages of the source.

Experiments:
HIV-1 (strain IIIB) = assay: MT4 cell assay, antiviral HIV activity (propidium iodide); format: cell-based; conditions: Human immunodeficiency virus 1, IIIB
Experimental: Antiviral HIV activity and compound-induced cytotoxicity were measured in parallel by means of a propidium iodide based procedure in the human T-cell lymphotropic virus transformed cell line MT4. Aliquots of the test compounds were serially diluted in medium (RPMI 1640, 10% fetal calf serum (FCS), and gentamycin) in 96-well plates (Costar 3598) using a Cetus Pro/Pette. Exponentially growing MT4 cells were harvested and centrifuged at 1000 rpm for 10 min in a Jouan centrifuge (model CR 4 12). Cell pellets were resuspended in fresh medium (RPMI 1640, 20% FCS, 20% IL-2, and gentamycin) to a density of 5×10^5 cells/ml. Cell aliquots were infected by the addition of HIV-1 (strain IIIB) diluted to give a viral multiplicity of infection of 100×TCID50. A similar cell aliquot was diluted with medium to provide a mock-infected control. Cell infection was allowed to proceed for 1 hr at 37° C. in a tissue culture incubator with humidified 5% CO2 atmosphere. After the 1 hr incubation the virus/cell suspensions were diluted 6-fold with fresh medium, and 125 μl of the cell suspension was added to each well of the plate containing pre-diluted compound. Plates were then placed in a tissue culture incubator with humidified 5% CO2 for 5 days. At the end of the incubation period, 27 μl of 5% Nonidet-40 was added to each well of the incubation plate. After thorough mixing with a Costar multitip pipetter, 60 μl of the mixture was transferred to filter-bottomed 96-well plates. The plates were analyzed in an automated assay instrument (Screen Machine, Idexx Laboratories). The control and standard used was 3′-azido-3′-deoxythymidine tested over a concentration range of 0.01 to 1 μM in every assay. […] The assay-makes use of a propidium iodide dye to estimate the DNA content of each well.
The antiviral effect of a test compound is reported as an IC50, i.e. the inhibitory concentration that would produce a 50% decrease in the HIV-induced cytopathic effect. This effect is measured by the amount of test compound required to restore 50% of the cell growth of HIV-infected MT4 cells, compared to uninfected MT4 cell controls. IC50 was calculated by RoboSage, Automated Curve Fitting Program, version 5.00, 10 Jul. 1995.
For each assay plate, the results (relative fluorescence units, rfU) of wells containing uninfected cells or infected cells with no compound were averaged, respectively. For measurements of compound-induced cytotoxicty, results from wells containing various compound concentrations and uninfected cells were compared to the average of uninfected cells without compound treatment. Percent of cells remaining is determined by the following formula: Percent of cells remaining=(compound−treated uninfected cells, rfU/untreated uninfected cells)×100.
A level of percent of cells remaining of 79% or less indicates a significant level of direct compound-induced cytotoxicity for the compound at that concentration. When this condition occurs the results from the compound-treated infected wells at this concentration are not included in the calculation of IC50.
For measurements of compound antiviral activity, results from wells containing various compound concentrations and infected cells are compared to the average of uninfected and infected cells without compound treatment. Percent inhibition of virus is determined by the following formula: Percent inhibition of virus=(1−((ave. untreated uninfected cells−treated infected cells)/(ave. untreated uninfected cells−ave. untreated infected cells)))×100

NEV-R = assay: as above; format: cell-based; conditions: Human immunodeficiency virus 1, MT4, read-out: IC50 (nM) Range
HIV-2 = assay: as above; format: cell-based; conditions: Human immunodeficiency virus 2, Virus Type HIV-2, read-out: IC50 (nM) Range
[1] = test system: isogenic HIV-1 RT mutant virus K103N; assay: HeLa cell assay (HIV-LTR β-galactosidase reporter); format: cell-based; conditions: Human immunodeficiency virus 1, HeLa, read-out: IC50 (nM) Range
Experimental: (§1) The HeLa cell assay was performed according to a modification of Kimpton J. and Emerman M., Detection of replication-competent and pseudotyped human immunodeficiency virus with a sensitive cell line on the basis of activation of an integrated β-galactosidase gene, J. Virol. 66:2232-2239 (1992), in which HIV-1 infection is detected by the activation of an HIV-LTR driven β-galactosidase reporter that is integrated into the genome of a CD4^+ HeLa cell line. Quantitation of β-galactosidase is achieved by measuring the activation of a chemiluminescent substrate (Tropix). The concentration of each compound required to inhibit 50% (IC50) of the HIV-1 induced β-galactosidase signal, relative to untreated controls, was determined for each isogenic, recombinant virus.
(§2) HeLa-CD4-LTR-β-gal cells were obtained from the NIH AIDS Research and Reference Reagent Program. Cells were propagated in DMEM containing 10% fetal bovine serum, 0.2 mg/ml geneticin and 0.1 mg/ml hygromycin B. Cells were routinely split by trypsinization when confluency reached 80% (approximately every 2 to 3 days).
(§3) DNA encoding the HIV-1 reverse transcriptase was subcloned from a M13 phage into a general shuttle vector, pBCSK+, as a ˜1.65 kbp EcoRI/HindIII ended DNA fragment. The HIV DNA insert of the resulting plasmid, pRT2, was completely sequenced on both strands prior to use in site directed mutagenesis experiments. Specific amino acid replacements were made using Stratagene Quick Change reagents and mutagenic oligonucleotides from Oligos. Following mutagenesis, the entire mutant RT coding sequence was verified by sequencing both DNA strands.
(§4) Mutant HIV-1 strains were isolated by a modified Recombinant Virus Assay (Kellam P. and Larder B., Recombinant virus assay: a rapid, phenotypic assay for assessment of drug susceptibility of human immunodeficiency virus type 1 isolates, Antimicrobial Agents and Chemotherapy, 38:23-30, 1994). 1×10^7 Jurkat T-cells (maintained in RPMI containing 10% fetal bovine serum, split 1:5 every 5 to 6 days) were co-transfected with EcoRI/HindIII digested mutant RT plasmid and Bst EII-digested HIV-1HXB2ΔRT DNA in the presence of DMRIE-C transfection reagent (Gibco) according to supplier's recommended protocol. Each mutant RT coding sequence was crossed into the RT-deleted HIV-1 viral DNA backbone by in vivo homologous recombination. Transfected cell cultures were expanded and monitored until syncitia formation and CPE were extensive. Virus was harvested by clear spin of the culture supernatants and frozen at −80 C as primary stock. Recombinant progeny virus was sequenced in the RT region to confirm the mutant genotype. Virus stocks were further expanded by infection of Jurkat cells, harvested and stored as frozen aliquots. Stocks were titered in HeLa MAGI cells for assay.
(§5) The HIV-1HXB2 mutants were titered in the HeLa MAGI assay system to determine the relative light units (RLU) per ml, a measure of infectivity relevant for this assay system. Virus stocks were diluted in a 2-fold series into DMEM containing 10% fetal bovine serum plus 20 ug/ml DEAE-dextran and assayed as described in the Experimental Protocol section, below.
(§6) 96-well microtiter plate(s) (Costar #3598) were seeded with 3×10^3 HeLa-CD4-LTR-β-gal in 100 μl DMEM containing 10% fetal bovine serum. Plates were placed in a 37° C., 5% CO2 humidified incubator overnight. The following day, mutant virus stocks were thawed in a room temperature water bath and diluted into DMEM containing 10% fetal bovine serum and 20 μg/ml DEAE-dextran to achieve an input of 1500 to 2000 RLU/ml. All media was removed with an 8 channel manifold aspirator and 35 μl (50 to 70 total RLUs) of diluted virus was added to each well for virus adsorption. Plates were placed in a 37° C., 5% CO2 humidified incubator for 1.5 to 2 hours.
(§7) Compound titration plates were prepared at 1.35× final concentration during the virus adsorption period. […]

[2] = test system: isogenic HIV-1 RT mutant virus K103N/Y181C; assay: HeLa cell assay (HIV-LTR β-galactosidase reporter); format: cell-based; conditions: Human immunodeficiency virus 1, HeLa, read-out: IC50 (nM) Range
Experimental: as §1, §2, §3, §4, §5, §6, §7

WTRVA = assay: HeLa cell assay (HIV-LTR β-galactosidase reporter); format: cell-based, HIV-1; conditions: Human immunodeficiency virus 1, Virus Type WTRVA, read-out: IC50 (nM) Range
Experimental: as §1, §2, §3, §4, §5, §6, §7

[3] = test system: isogenic HIV-1 RT mutant virus Y181C; assay: HeLa cell assay (HIV-LTR β-galactosidase reporter); format: cell-based; conditions: Human immunodeficiency virus 1, HeLa, read-out: IC50 (nM) Range
Experimental: as §1, §2, §3, §4, §5, §6, §7

[4] = Virus Type HIV-1, Assay MT4, read-out: IC50 (nM) Range

Cc1cn([C@H]2C[C@H](N=[N+]=[N-])[C@@H](CO)O2)c(=O)[nH]c1=O [3′-azido-3′-deoxythymidine, reference compound]
IC50 (HIV-1 (strain IIIB); control and standard tested in every MT4 assay, 0.01 to 1 μM, read-out: expected range of IC50 values): 40 to 120 nM

O=C(COc1ccc(Cl)cc1C(=O)c1nccs1)Nc1ccccc1 [Compound 1]
IC50 (NEV-R): 1000 to 3000 nM
IC50 (HIV-1 (strain IIIB); [4]): 101 to 1000 nM

O=C(COc1ccc(Cl)cc1C(=O)c1nccs1)Nc1ccc2[nH]ncc2c1 [Compound 5]
IC50 (NEV-R): 101 to 1000 nM
IC50 (HIV-1 (strain IIIB); [4]): 11 to 100 nM

Cc1cc(N2CC[S+]([O-])CC2)ccc1NC(=O)COc1ccc(Cl)cc1C(=O)c1nccs1 [Compound 8]
IC50 (NEV-R): 101 to 1000 nM
IC50 (HIV-1 (strain IIIB); [4]): 11 to 100 nM

O=C(COc1ccc(Cl)cc1C(=O)c1cc2ccccc2o1)Nc1ccccc1 [Compound 9]
IC50 (NEV-R): 101 to 1000 nM
IC50 (HIV-1 (strain IIIB); [4]): 11 to 100 nM

Cc1cc(S(N)(=O)=O)ccc1NC(=O)COc1ccc(Cl)cc1C(=O)c1cc(Cl)cc(Cl)c1 [Compound 79]
IC50 (NEV-R): < 10 nM
IC50 (HIV-2): 1000 to 3000 nM
IC50 [1]: < 10 nM
IC50 [2]: < 10 nM
IC50 (HIV-1 (strain IIIB); [4]): < 10 nM

O=C(COc1ccc(Cl)cc1C(=O)c1ccccc1)Nc1ccc(-n2cncn2)cc1 [Compound 103]
IC50 (NEV-R): 101 to 1000 nM
IC50 [1]: 11 to 100 nM
IC50 (HIV-1 (strain IIIB); [4]): 11 to 100 nM

Cc1cc(OCCCN2CCOCC2)ccc1NC(=O)COc1ccc(Cl)cc1C(=O)c1cccs1 [Compound 120]
IC50 (NEV-R): 11 to 100 nM
IC50 (WTRVA): 11 to 100 nM
IC50 [1]: 11 to 100 nM
IC50 [3]: 11 to 100 nM
IC50 [2]: 101 to 1000 nM
IC50 (HIV-1 (strain IIIB); [4]): 11 to 100 nM

Cc1cc(N2CC[S+]([O-])CC2)ccc1NC(=O)COc1ccc(Cl)cc1C(=O)c1cccs1 [Compound 122]
IC50 (NEV-R): 11 to 100 nM
IC50 (WTRVA): 11 to 100 nM
IC50 [1]: 11 to 100 nM
IC50 [3]: 101 to 1000 nM
IC50 [2]: 1000 to 3000 nM
IC50 (HIV-1 (strain IIIB); [4]): < 10 nM
